Data reported in US20110091945A1, “METHODS OF INCREASING BIOMASS PRODUCTIVITY, LIPID INDUCTION, AND CONTROLLING METABOLITES IN ALGAE FOR PRODUCTION OF BIOFUELS USING BIOCHEMICAL STIMULANTS” (priority 2009, published 2011).

Key:
Chlorella sorokiniana [1] = test: Biostimulant static culture batch study: biomass productivity; type: cell-based, Chlorella sorokiniana (UTEX 2805); conditions: for effect on biomass / algal growth versus control, in words: day 5 and 10; for effect on biomass / algal growth versus control, in words / growth (biomass) increase over control: dosage of Table 1; for biomass (cell concentration / biomass productivity): 0.16 g/L with no biostimulants; for increase in biomass over control: dosage of Table 1 (NAA 5 ppm, PAA 30 ppm, IBA 10 ppm); for growth (biomass) increase over control: day not given
Experimental: (§1) The pH value of culture medium was adjusted to 7.0±0.2 before inoculation and the alga was maintained in a temperature controlled growth chamber at 25±1° C. and 100±10 μmoles/m^2/s light intensity provided by cool white fluorescent (6500K) T-8 bulbs.
(§2) • Selection of the biochemical stimulants: Ten biochemical stimulants were selected, including indole-acetic acid, naphthalene-acetic acid, and phenyl-acetic acid The structures are shown in FIGS. 1 and 2. • Biochemical stimulants: Naphthalene acetic acid (NAA), indole-butryic acid […], gibberellic acid, and kelp extract were obtained from Super-Grow Plant Care, Montreal, Canada; Zeatin, and thidiazuron were obtained from bioWORLD, GeneLinx International, Inc, Ohio, USA; phenyl-acetic acid was supplied by Sigma-Aldrich, St. Louis, Mo., USA.
(§3) The experiment devised for the testing of biostimulants was a static culture batch study performed in triplicates for all treatments. Samples were collected and analyzed on day 0, 5 and 10. The growth medium was comprised of 90 ml of BG11 with appropriate concentrations of various biostimulants. Biochemical stimulants were filter sterilized through 0.22 μm Whatman syringe filter to avoid bacterial contamination. Each flask received 10 ml inoculum of exponentially growing Chlorella sorokiniana. After inoculation, flasks were incubated in the environmental growth chamber for 10 days in a temperature controlled growth chamber at 25±1° C. and 100±10 μmoles/m^21s light intensity provided by cool white fluorescent (6500K) T-8 bulbs.
(§4) • Analysis: Optical density was measured at 750 nm using a UV/Visible Spectrophotometer (Varian Cary 50, Varian Inc, Palo Alto, Calif., USA). Chlorophyll content was estimated following the method of Porra et al., ((1989) Biochem. Biophys. Acta 975: 384-394, incorporated herein in its entirety). The carbohydrate and protein content were estimated using the well-known methods of Dubois and Lowry respectively. Biomass was determined by filtering 25 mL of culture using pre-weighed Whatman GF/C glass fiber filters (1.2 μm). The material was washed with deionized water, dried at 60° C. for 12 h, and weighed. Photosynthetic efficiency and kinetics were determined by chlorophyll a fluorescence analysis using a Pulse Amplitude Modulation Fluorometer (Mini-PAM Chlorophyll a Fluorometer, Heinz Walz GmbH, Effeltrich, Germany).

Chlorella sorokiniana [2] = test: Biostimulant static culture batch study: chlorophyll content; type: cell-based, Chlorella sorokiniana (UTEX 2805); set-up: increase in chlorophyll over control / decrease in chlorophyll content versus control: concentration or dose not given beside the values; conditions: for increase in chlorophyll over control: day 10; for decrease in chlorophyll content versus control: day 5
Experimental: as §1, §2, §3, §4

Chlorella sorokiniana [3] = test: Biostimulant static culture batch study: total carbohydrate content; type: cell-based, Chlorella sorokiniana (UTEX 2805); conditions: for effect on carbohydrate synthesis versus control, in words: day 5; for increase in carbohydrate over control: day 10
Experimental: as §1, §2, §3, §4

Scenedesmus obliquus = conditions: 0.5% (v/v); cited from earlier work
[4] = system: soy callus and radish cotyledon; conditions: cited from earlier work
[5] = system: callus tissue culture from tobacco; conditions: cited from earlier work
Dunaliella tertiolecta = conditions: 136 mg L^−1; cited from earlier work

C=C1C[C@]23C[C@@]1(O)CC[C@H]2[C@@]12C=C[C@H](O)[C@@](C)(C(=O)O1)[C@H]2[C@@H]3C(=O)O [GAA, gibberellic acid]
effect on biomass / algal growth versus control, in words (Chlorella sorokiniana [1]): barely surpassed the control on day 5 | biomass (cell concentration / biomass productivity) (Chlorella sorokiniana [1]; day 10): ~0.28 g/L | increase in biomass over control (Chlorella sorokiniana [1]; day 10, listed as GA): approximately 30% | increase in biomass over control (Chlorella sorokiniana [1]; day 10, listed as GA3): 81% | effect on chlorophyll synthesis, in words (Chlorella sorokiniana [2]): inhibiting chlorophyll synthesis throughout the growth period | increase in chlorophyll over control (Chlorella sorokiniana [2]): 30%

O=C(O)CCCc1c[nH]c2ccccc12 [IBA, indole-butryic acid]
increase in biomass over control (Chlorella sorokiniana [1]; day 5): 74% | effect on biomass / algal growth versus control, in words (Chlorella sorokiniana [1]): stimulated biomass growth during the entire 0-10 day growth period | biomass (cell concentration / biomass productivity) (Chlorella sorokiniana [1]; day 10): 0.28 g/L | increase in biomass over control (Chlorella sorokiniana [1]; day 10): 76% | effect on chlorophyll synthesis, in words (Chlorella sorokiniana [2]): marginal increase by day 5 | increase in chlorophyll over control (Chlorella sorokiniana [2]): 93% | effect on carbohydrate synthesis versus control, in words (Chlorella sorokiniana [3]): reduced carbohydrate contents on day 5

CO [MeOH, methanol]
decrease in chlorophyll content versus control (Chlorella sorokiniana [2]): 45% | increase in the growth rate (Scenedesmus obliquus): > 300%

O=C(O)Cc1ccccc1 [PAA, Phenyl acetic acid]
increase in biomass over control (Chlorella sorokiniana [1]; day 5): 95% | increase in biomass over control (Chlorella sorokiniana [1]; day 10): 42% | decrease in chlorophyll content versus control (Chlorella sorokiniana [2]): 37% | effect on carbohydrate synthesis versus control, in words (Chlorella sorokiniana [3]): reduced carbohydrate contents on day 5 | increase in carbohydrate over control (Chlorella sorokiniana [3]): 27%

O=C(Nc1ccccc1)Nc1cnns1 [TDZ, thidiazuron]
increase in biomass over control (Chlorella sorokiniana [1]; day 10): approximately 30% | growth (biomass) increase over control (Chlorella sorokiniana [1]): 33% | increase in chlorophyll over control (Chlorella sorokiniana [2]): 30% | optimal dose that generated maximum growth in soy callus and expansion of radish cotyledon [4]: 1 µM

C/C(=C\CNc1ncnc2[nH]cnc12)CO [Zeatin]
growth (biomass) increase over control (Chlorella sorokiniana [1]): 27% | effect on carbohydrate synthesis versus control, in words (Chlorella sorokiniana [3]): reduced carbohydrates synthesis on day 5 | increase in carbohydrate over control (Chlorella sorokiniana [3]): 31% | activity relative to its cis isomer [5]: at least 50 times | optimal dosage for maximum growth of callus tissue culture [5]: 10^−2 μM

CCNc1nc(Cl)nc(NC(C)C)n1 [atrazine]
increase in lipid content relative to the control (Dunaliella tertiolecta): 101% | reduction of protein content relative to the control (Dunaliella tertiolecta): 57%

[Cl][Fe]([Cl])[Cl] [ferric chloride]
effect on biomass / algal growth versus control, in words (Chlorella sorokiniana [1]): only marginal increases and decreases on day 10 and 5 | decrease in chlorophyll content versus control (Chlorella sorokiniana [2]): 65%
